This is an account of results in paper PMC11249646, “Small-Molecule Disruptors of the Interaction between Calcium- and Integrin-Binding Protein 1 and Integrin αIIbβ3 as Novel Antiplatelet Agents” (ACS Pharmacology & Translational Science, 2024).

Holding throughout (format): binding
For test [1], the target named is T1, CIB1 and αIIb interaction (GST-CIB1 : F-αIIb peptide) (Homo sapiens, UniProt Q99828).
T1 construct: made in house; host or cells: BL-21 plus RIL cells (E. coli)
T1 sequence (Q99828 1-191): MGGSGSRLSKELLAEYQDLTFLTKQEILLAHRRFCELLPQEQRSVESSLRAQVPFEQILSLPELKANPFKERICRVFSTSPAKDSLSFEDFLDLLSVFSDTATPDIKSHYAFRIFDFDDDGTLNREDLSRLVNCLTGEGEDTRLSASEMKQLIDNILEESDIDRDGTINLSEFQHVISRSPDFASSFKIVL
As to the kind of experiment: FP assay, 384-well format (screen). To be noted: F-αIIb peptide; for 384-well SCREEN Confirm?: YES/NO; for IC50: read-out: 384-well SCREEN IC50. On the set-up: 384-well SCREEN Efficacy (%): concentration or dose not given beside the values.

The target in test [2] is T2, GST-CIB1 : F-scrambled peptide (Homo sapiens, UniProt Q99828).
T2 construct: made in house; host or cells: BL-21 plus RIL cells (E. coli)
T2 sequence (Q99828 1-191): T1 sequence (Q99828 1-191)
As to the kind of experiment: FP scrambled-peptide counter screen, 384-well format. To be noted: F-scrambled peptide; for 384-well COUNTERSCREEN Confirm?: *: Curve in opposite direction; for IC50: read-out: 384-well COUNTERSCREEN IC50.

In test [3] the target is T3, CIB1 and αIIb interaction (CIB1-GST : F-αIIb peptide) (Homo sapiens, UniProt Q99828).
T3 construct: made in house; host or cells: BL-21 plus RIL cells (E. coli)
T3 sequence (Q99828 1-191): T1 sequence (Q99828 1-191)
As to the kind of experiment: FP assay, 1536-well qHTS format (primary and confirmatory screen). The settings on record: for CONFIRMATORY SCREEN Confirm?: YES/NO call; for CONFIRMATORY SCREEN Curve Class: qHTS curve class; for CONFIRMATORY SCREEN Curve Class / Curve Class: negative sign = inhibitory curve; for CONFIRMATORY SCREEN Efficacy (%) / Efficacy (%): negative = inhibition. For orientation: In qHTS, concentration-response curves come from the screen itself.

For test [4], the target named is T2, GST-CIB1 : F-scrambled peptide. Kind of test: FP scrambled-peptide counter screen, 1536-well format. The settings on record: scrambled-peptide counterscreen; for COUNTERSCREEN Confirm?: YES/NO call; for COUNTERSCREEN Curve Class: qHTS curve class; for IC50: read-out: COUNTERSCREEN IC50.
Setting [5] is: confirmatory screen, read-out: CONFIRMATORY SCREEN IC50.
The mark [6] stands for this setting: qHTS primary screen hits, Table S2.
Where [7] appears, read: qHTS primary screen hits, Table S2, several classes where COUNT > 1.
Where [8] appears, read: qHTS primary screen hits, Table S2, read-out: IC50.

Read-outs that look alike come from different tables or passages of the source.

The term IC50 denotes the midpoint of a concentration-inhibition curve. Consider `O=C(Nc1nc(-c2ccccc2)cs1)c1ccncc1NS(=O)(=O)c1cccc2cccnc12.O=C(O)C(F)(F)F` [NCGC00344938-01], for which, in test [1], the “384-well SCREEN Efficacy (%)” value stood at 16%, the “384-well SCREEN Confirm?” value was “YES” and the IC50 worked out at 6.3 µM. Besides, in test [2], the “384-well COUNTERSCREEN Efficacy (%)” value is 18%, the “384-well COUNTERSCREEN Confirm?” value is “YES” and the IC50 is more than 120 µM. Besides, in test [3] (confirmatory screen), the “CONFIRMATORY SCREEN Confirm?” value is reported as “YES”, the “CONFIRMATORY SCREEN Curve Class” value is listed as -2.2 and the “CONFIRMATORY SCREEN Efficacy (%)” value is on record as -93%. Moreover, in test [3] (setting [5]), the IC50 turned out to be 35.5 µM. In test [3] (setting [6]), the “Efficacy (%)” value was -56%. In test [3] (setting [7]), the “Curve Class” value is on record as -2.2. Besides, the IC50 in test [3] (setting [8]) is 39.8 µM. Besides, in test [4], the “COUNTERSCREEN Efficacy (%)” value is reported as -33%, the “COUNTERSCREEN Confirm?” value is “YES”, the “COUNTERSCREEN Curve Class” value is listed as -2.4 and the IC50 came to 70.8 µM.
Regarding `Cc1cc(Nc2c(Nc3nnc(-c4ccncc4)s3)c(=O)c2=O)ccc1Cl.O=C(O)C(F)(F)F` [NCGC00241510-01], in test [1], the “384-well SCREEN Efficacy (%)” value came to 23% and the IC50 was more than 120 µM. Besides, in test [2], the “384-well COUNTERSCREEN Efficacy (%)” value is 64% and the IC50 was more than 120 µM. In test [3] (confirmatory screen), the “CONFIRMATORY SCREEN Confirm?” value is listed as “YES”, the “CONFIRMATORY SCREEN Curve Class” value is -1.4 and the “CONFIRMATORY SCREEN Efficacy (%)” value is recorded as -51%. Moreover, the half-maximal inhibitory concentration (IC50) in test [3] (setting [5]) turned out to be 11.2 µM. Moreover, in test [3] (setting [6]), the “Efficacy (%)” value was -35% and the “Curve Class” value is given as -2.4. Also, in test [3] (setting [8]), the IC50 was determined as 39.8 µM. Also, in test [4], the “COUNTERSCREEN Efficacy (%)” value is on record as -33%, the “COUNTERSCREEN Confirm?” value is listed as “YES”, the “COUNTERSCREEN Curve Class” value is given as -2.2 and the IC50 stood at 44.7 µM.
For `COC(=O)c1ccc2c(c1)S(=O)(=O)N=C2Sc1cc(C)ccc1C` [NCGC00238687-01], in test [1], the “384-well SCREEN Efficacy (%)” value is recorded as 65%, the “384-well SCREEN Confirm?” value is reported as “YES” and the IC50 was 11.2 µM. For the same compound, in test [2], the “384-well COUNTERSCREEN Efficacy (%)” value is on record as 45%, the “384-well COUNTERSCREEN Confirm?” value is reported as “YES” and the IC50 is more than 120 µM. In test [3] (confirmatory screen), the “CONFIRMATORY SCREEN Confirm?” value is “YES”, the “CONFIRMATORY SCREEN Curve Class” value is -1.2 and the “CONFIRMATORY SCREEN Efficacy (%)” value was -59%. Further, the IC50 in test [3] (setting [5]) was found to be 28.2 µM. Besides, the “Efficacy (%)” value in test [3] (setting [6]) is -49%. In addition, in test [3] (setting [7]), the “Curve Class” value is given as -2.2. Besides, the 50% inhibitory concentration (IC50) in test [3] (setting [8]) is 39.8 µM. Moreover, in test [4], the “COUNTERSCREEN Efficacy (%)” value is -10%, the “COUNTERSCREEN Confirm?” value was “YES” and the “COUNTERSCREEN Curve Class” value came out at 4.
Consider `COc1cccc(-c2csc(NC(=O)c3ccncc3NS(=O)(=O)c3ccc(C)cc3)n2)c1` [NCGC00319006-02], for which, in test [1], the “384-well SCREEN Efficacy (%)” value stood at 52%, the “384-well SCREEN Confirm?” value is recorded as “YES” and the IC50 came to 20 µM. In test [2], the “384-well COUNTERSCREEN Efficacy (%)” value is 18%, the “384-well COUNTERSCREEN Confirm?” value is listed as “YES” and the half-maximal inhibitory concentration (IC50) was more than 120 µM. Besides, in test [3] (confirmatory screen), the “CONFIRMATORY SCREEN Confirm?” value is “YES”, the “CONFIRMATORY SCREEN Curve Class” value is reported as -2.2 and the “CONFIRMATORY SCREEN Efficacy (%)” value is given as -89%. Besides, the half-maximal inhibitory concentration (IC50) in test [3] (setting [5]) was 31.6 µM. Besides, in test [4], the “COUNTERSCREEN Efficacy (%)” value is given as -41%, the “COUNTERSCREEN Confirm?” value is on record as “YES”, the “COUNTERSCREEN Curve Class” value is -3 and the IC50 stood at 89.1 µM.
For `Cc1ccc(S(=O)(=O)Nc2cnccc2C(=O)Nc2nc(-c3nc4ccccc4s3)cs2)cc1.O=C(O)C(F)(F)F` [NCGC00343736-01], in test [1], the “384-well SCREEN Efficacy (%)” value turned out to be 44%, the “384-well SCREEN Confirm?” value was “YES” and the half-inhibitory concentration (IC50) came to 22.4 µM. In test [2], the “384-well COUNTERSCREEN Efficacy (%)” value worked out at 23%, the “384-well COUNTERSCREEN Confirm?” value is recorded as “YES” and the half-inhibitory concentration (IC50) was more than 120 µM. In test [3] (confirmatory screen), the “CONFIRMATORY SCREEN Confirm?” value is “YES”, the “CONFIRMATORY SCREEN Curve Class” value is reported as -1.1 and the “CONFIRMATORY SCREEN Efficacy (%)” value is given as -89%. Also, in test [3] (setting [6]), the “Efficacy (%)” value is reported as -51% and the “Curve Class” value is given as -1.2. The IC50 in test [3] (setting [8]) came to 28.2 µM. Besides, in test [4], the “COUNTERSCREEN Efficacy (%)” value is -16%, the “COUNTERSCREEN Confirm?” value is listed as “YES” and the “COUNTERSCREEN Curve Class” value was determined as 4.
